For 26 molecules, IC50 results are on record in US9873709B2 (priority 2013, dated 2018).

pIC50: −log10 of the molar value.

The experiment deals with JAK1-dependent STAT6 phosphorylation downstream of IL-13 stimulation in TF-1 human erythroleukemia cells. Description: cells. The following applies: TF-1, read-out: IL-13-pSTAT6 IC50.
Protocol: Inhibitor potency (EC50) was determined in cell-based assays designed to measure JAK1 dependent STAT phosphorylation.
Prior to use in the assays, TF-1 cells were starved of GM-CSF overnight in OptiMEM medium (Life Technologies, Grand Island, N.Y.) supplemented with 0.5% charcoal/dextran stripped fetal bovine serum (FBS), 0.1 mM non-essential amino acids (NEAA), and 1 mM sodium pyruvate. The assays were run in 384-well plates in serum-free OptiMEM medium using 300,000 cells per well. In a second assay approach, BEAS-2B human bronchial epithelial cells obtained from ATCC were plated at 100,000 cells per well of a 96-well plate one day prior to the experiment. The BEAS-2B assay was run in complete growth medium (bronchial epithelial basal medium plus bulletkit; Lonza; Basel, Switzerland).
Test compounds were serially diluted 1:2 in DMSO and then diluted 1:50 in medium just before use. Diluted compounds were added to the cells, for a final DMSO concentration of 0.2%, and incubated for 30 min (for the TF-1 assay) or 1 hr (for the BEAS-2B assay) at 37° C. Then, cells were stimulated with human recombinant cytokine at their respective EC90 concentrations, as previously determined for each individual lot. […] The resultant samples were frozen in the plates at −80° C. Compound mediated inhibition of STAT6 phosphorylation was measured in the cell lysates using MesoScale Discovery (MSD) technology (Gaithersburg, Md.).
As to `CN1CCCCC1C1CCCN1C(=O)c1ccc(Nc2nc3c(N4CCC(O)(c5ccc(Cl)cc5)CC4)cccn3n2)cc1` (centres unmarked) [Example 1-52, [4-[[8-[4-(4-chlorophenyl)-4-hydroxy-1-piperidyl]-[1,2,4]triazolo[1,5-a]pyridin-2-yl]amino]phenyl]-[2-(1-methyl-2-piperidyl)pyrrolidin-1-yl]methanone], the pIC50 is 7.68. Take `CC(=O)N1CC2(C1)CN(C(=O)c1ccc(Nc3nc4c(N5CCC(O)(c6ccc(Cl)cc6)CC5)cccn4n3)cc1)C2` [Example 1-53, 1-[2-[4-[[8-[4-(4-chlorophenyl)-4-hydroxy-1-piperidyl]-[1,2,4]triazolo[1,5-a]pyridin-2-yl]amino]benzoyl]-2,6-diazaspiro[3.3]heptan-6-yl]ethanone]: the pIC50 was 7.56. With `O=C(c1ccc(Nc2nc3c(N4CCC(O)(c5ccc(Cl)cc5)CC4)cccn3n2)cc1)N1CCN(C2CC2)CC1` [Example 1-54, [4-[[8-[4-(4-chlorophenyl)-4-hydroxy-1-piperidyl]-[1,2,4]triazolo[1,5-a]pyridin-2-yl]amino]phenyl]-(4-cyclopropylpiperazin-1-yl)methanone] the figure was 7.00.

For `CN1CCC2(C1)CN(C(=O)c1ccc(Nc3nc4c(N5CCC(O)(c6ccc(Cl)cc6)CC5)cccn4n3)cc1)C2` [Example 1-59, [4-[[8-[4-(4-chlorophenyl)-4-hydroxy-1-piperidyl]-[1,2,4]triazolo[1,5-a]pyridin-2-yl]amino]phenyl]-(7-methyl-2,7-diazaspiro[3.4]octan-2-yl)methanone], the negative logarithm of the IC50 (pIC50) is 7.81. With `CN1CCCC12CN(C(=O)c1ccc(Nc3nc4c(N5CCC(O)(c6ccc(Cl)cc6)CC5)cccn4n3)cc1)C2` [Example 1-60, [4-[[8-[4-(4-chlorophenyl)-4-hydroxy-1-piperidyl]-[1,2,4]triazolo[1,5-a]pyridin-2-yl]amino]phenyl]-(5-methyl-2,5-diazaspiro[3.4]octan-2-yl)methanone] the figure was 7.91; with `CN1CCC(NC(=O)c2ccc(Nc3nc4c(N5CCC(O)(c6ccc(Cl)cc6)CC5)cccn4n3)cc2)C1` (centres unmarked) [Example 1-62, 4-[[8-[4-(4-chlorophenyl)-4-hydroxy-1-piperidyl]-[1,2,4]triazolo[1,5-a]pyridin-2-yl]amino]-N-(1-methylpyrrolidin-3-yl)benzamide], 7.64. As to `CN(C)C(=O)C1(c2ccncc2)CCCN1C(=O)c1ccc(Nc2nc3c(N4CCC(O)(c5ccc(Cl)cc5)CC4)cccn3n2)cc1` (centres unmarked) [Example 1-74, 1-[4-[[8-[4-(4-chlorophenyl)-4-hydroxy-1-piperidyl]-[1,2,4]triazolo[1,5-a]-pyridin-2-yl]amino]benzoyl]-N,N-dimethyl-2-(4-pyridyl)pyrrolidine-2-carboxamide], the pIC50 was 7.47. As for `CN1C[C@@H]2CCN(C(=O)c3ccc(Nc4nc5c(N6CCC(O)(c7ccc(Cl)cc7)CC6)cccn5n4)cc3)[C@@H]2C1` [Example 1-76, [(3aS,6aS)-5-methyl-2,3,3a,4,6,6a-hexahydropyrrolo[2,3-c]pyrrol-1-yl]-[4-[[8-[4-(4-chlorophenyl)-4-hydroxy-1-piperidyl]-[1,2,4]triazolo[1,5-a]pyridin-2-yl]amino]phenyl] methanone], the figure is 7.90. Take `CN1CCC2(CC1)CN(C(=O)c1ccc(Nc3nc4c(N5CCC(O)(c6ccc(Cl)cc6)CC5)cccn4n3)cc1)C2` [Example 1-81, [4-[[8-[4-(4-chlorophenyl)-4-hydroxy-1-piperidyl]-[1,2,4]triazolo[1,5-a]pyridin-2-yl]amino]phenyl]-(7-methyl-2,7-diazaspiro[3.5]nonan-2-yl)methanone]: the negative-log IC50 (pIC50) was 7.96. With `CN(C)C1CCN(C(=O)c2ccc(Nc3nc4c(N5CCC(O)(c6ccc(Cl)cc6)CC5)cccn4n3)cc2)CC1` [Example 1-86, [4-[[8-[4-(4-chlorophenyl)-4-hydroxy-1-piperidyl]-[1,2,4]triazolo[1,5-a]pyridin-2-yl]amino]phenyl]-[4-(dimethylamino)-1-piperidyl]methanone] the figure was 7.67; with `O=C(N[C@H]1CN2CCC1CC2)c1ccc(Nc2nc3c(N4CCC(O)(c5ccc(Cl)cc5)CC4)cccn3n2)cc1` [Example 1-89, 4-[[8-[4-(4-chlorophenyl)-4-hydroxy-1-piperidyl]-[1,2,4]triazolo[1,5-a]pyridin-2-yl]amino]-N-[(3R)-quinuclidin-3-yl]benzamide], 6.90; with `CN1CC(NC(=O)c2ccc(Nc3nc4c(N5CCC(O)(c6ccc(Cl)cc6)CC5)cccn4n3)cc2)C1` [Example 1-92, 4-[[8-[4-(4-chlorophenyl)-4-hydroxy-1-piperidyl]-[1,2,4]triazolo[1,5-a]pyridin-2-yl]amino]-N-(1-methylazetidin-3-yl)benzamide], 7.23. With `O=C(NCCN1CCC(O)CC1)c1ccc(Nc2nc3c(N4CCC(O)(c5ccc(Cl)cc5)CC4)cccn3n2)cc1` [Example 1-95, 4-[[8-[4-(4-chlorophenyl)-4-hydroxy-1-piperidyl]-[1,2,4]triazolo[1,5-a]pyridin-2-yl]amino]-N-[2-(4-hydroxy-1-piperidyl)ethyl] benzamide] the figure was 6.94; with `CN1CCN(CCCNC(=O)c2ccc(Nc3nc4c(N5CCC(O)(c6ccc(Cl)cc6)CC5)cccn4n3)cc2)CC1` [Example 1-96, 4-[[8-[4-(4-chlorophenyl)-4-hydroxy-1-piperidyl]-[1,2,4]triazolo[1,5-a]pyridin-2-yl]amino]-N-[3-(4-methylpiperazin-1-yl)propyl]benzamide], 7.19; with `CN1CCN(CCNC(=O)c2ccc(Nc3nc4c(N5CCC(O)(c6ccc(Cl)cc6)CC5)cccn4n3)cc2)CC1` [Example 1-97, 4-[[8-[4-(4-chlorophenyl)-4-hydroxy-1-piperidyl]-[1,2,4]triazolo[1,5-a]pyridin-2-yl]amino]-N-[2-(4-methylpiperazin-1-yl)ethyl]benzamide], 7.60. Turning to `O=C(NCCN1CCOCC1)c1ccc(Nc2nc3c(N4CCC(O)(c5ccc(Cl)cc5)CC4)cccn3n2)cc1` [Example 1-101, 4-[[8-[4-(4-chlorophenyl)-4-hydroxy-1-piperidyl]-[1,2,4]triazolo[1,5-a]pyridin-2-yl]amino]-N-(2-morpholinoethyl)benzamide], the pIC50 was 7.85.

`CN1CCCCC1CNC(=O)c1ccc(Nc2nc3c(N4CCC(O)(c5ccc(Cl)cc5)CC4)cccn3n2)cc1` (centres unmarked) [Example 1-103, 4-[[8-[4-(4-chlorophenyl)-4-hydroxy-1-piperidyl]-[1,2,4]triazolo[1,5-a]pyridin-2-yl]amino]-N-[(1-methyl-2-piperidyl)methyl]benzamide]: the negative logarithm of the IC50 (pIC50) is 7.62. For `CN1CCC(NC(=O)c2ccc(Nc3nc4c(N5CCC(O)(c6ccc(Cl)cc6)CC5)cccn4n3)cc2)CC1` [Example 1-105, 4-[[8-[4-(4-chlorophenyl)-4-hydroxy-1-piperidyl]-[1,2,4]triazolo[1,5-a]pyridin-2-yl]amino]-N-(1-methyl-4-piperidyl)benzamide], the pIC50 is 7.85. With `CN(Cc1ccncc1)C(=O)c1ccc(Nc2nc3c(N4CCC(O)(c5ccc(Cl)cc5)CC4)cccn3n2)cc1` [Example 1-111, 4-[[8-[4-(4-chlorophenyl)-4-hydroxy-1-piperidyl]-[1,2,4]triazolo[1,5-a]pyridin-2-yl]amino]-N-methyl-N-(4-pyridylmethyl)benzamide] the figure was 7.81. With `CN1CCN(C(=O)C2CCN(C(=O)c3ccc(Nc4nc5c(N6CCC(O)(c7ccc(Cl)cc7)CC6)cccn5n4)cc3)CC2)CC1` [Example 1-113, [4-[[8-[4-(4-chlorophenyl)-4-hydroxy-1-piperidyl]-[1,2,4]triazolo[1,5-a]pyridin-2-yl]amino]phenyl]-[4-(4-methylpiperazine-1-carbonyl)-1-piperidyl]methanone] the figure was 7.57; with `O=C(c1ccc(Nc2nc3c(N4CCC(O)(c5ccc(Cl)cc5)CC4)cccn3n2)cc1)N1CCCN(c2ccncc2)CC1` [Example 1-114, [4-[[8-[4-(4-chlorophenyl)-4-hydroxy-1-piperidyl]-[1,2,4]triazolo[1,5-a]pyridin-2-yl]amino]phenyl]-[4-(4-pyridyl)-1,4-diazepan-1-yl]methanone], 7.53; with `O=C(c1ccc(Nc2nc3c(N4CCC(O)(c5ccc(Cl)cc5)CC4)cccn3n2)cc1)N1CCN(CCn2ccnc2)CC1` [Example 1-116, [4-[[8-[4-(4-chlorophenyl)-4-hydroxy-1-piperidyl]-[1,2,4]triazolo[1,5-a]pyridin-2-yl]amino]phenyl]-[4-(2-imidazol-1-ylethyl)piperazin-1-yl]methanone], 7.47.

Take `O=C(c1ccc(Nc2nc3c(N4CCC(O)(c5ccc(Cl)cc5)CC4)cccn3n2)cc1)N1CCCCC1Cc1ccccn1` (centres unmarked) [Example 1-121, [4-[[8-[4-(4-chlorophenyl)-4-hydroxy-1-piperidyl]-[1,2,4]triazolo[1,5-a]pyridin-2-yl]amino]phenyl]-[2-(2-pyridylmethyl)-1-piperidyl]methanone]: the pIC50 was 6.88. As to `CN1CCCC(CNC(=O)c2ccc(Nc3nc4c(N5CCC(O)(c6ccc(Cl)cc6)CC5)cccn4n3)cc2)C1` (centres unmarked) [Example 1-141, 4-[[8-[4-(4-chlorophenyl)-4-hydroxy-1-piperidyl]-[1,2,4]triazolo[1,5-a]pyridin-2-yl]amino]-N-[(1-methyl-3-piperidyl)methyl]benzamide], the pIC50 is 7.24. As for `CNC(=O)C1CN(C)CCN1C(=O)c1ccc(Nc2nc3c(N4CCC(O)(c5ccc(Cl)cc5)CC4)cccn3n2)cc1` (centres unmarked) [Example 1-152, 1-[4-[[8-[4-(4-chlorophenyl)-4-hydroxy-1-piperidyl]-[1,2,4]triazolo[1,5-a]pyridin-2-yl]amino]benzoyl]-N,4-dimethyl-piperazine-2-carboxamide], the pIC50 is 7.19. As for `CN(C)C(=O)C1CN(C(=O)c2ccc(Nc3nc4c(N5CCC(O)(c6ccc(Cl)cc6)CC5)cccn4n3)cc2)C1` [Example 1-164, 1-[4-[[8-[4-(4-chlorophenyl)-4-hydroxy-1-piperidyl]-[1,2,4]triazolo[1,5-a]pyridin-2-yl]amino]benzoyl]-N,N-dimethyl-azetidine-3-carboxamide], the figure is 7.97.
